From publication PMC9204300, “Investigating the Mechanism of Inhibition of Cyclin-Dependent Kinase 6 Inhibitory Potential by Selonsertib: Newer Insights Into Drug Repurposing” (Frontiers in Oncology, 2022)

Target: Cyclin-dependent kinase 6 (CDK6) (Homo sapiens, UniProt Q00534)
Experiment: biochemical

Cyclin-dependent kinase 6 (CDK6), sequence (Q00534 whole entry): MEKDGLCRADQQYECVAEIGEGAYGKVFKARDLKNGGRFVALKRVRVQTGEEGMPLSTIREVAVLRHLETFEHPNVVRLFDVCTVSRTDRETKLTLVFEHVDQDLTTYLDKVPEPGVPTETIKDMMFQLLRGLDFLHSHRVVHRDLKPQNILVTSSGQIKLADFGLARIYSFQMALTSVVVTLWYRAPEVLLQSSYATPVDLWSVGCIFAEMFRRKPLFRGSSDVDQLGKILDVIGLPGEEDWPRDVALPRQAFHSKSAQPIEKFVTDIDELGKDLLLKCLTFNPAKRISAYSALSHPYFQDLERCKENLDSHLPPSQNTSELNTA

Which Kd does the source give for `Cc1cc(F)c(C(=O)Nc2cccc(-c3nncn3C(C)C)n2)cc1-n1cnc(C2CC2)c1` [selonsertib] here?
The Kd was 5.56 µM.
